Assay results: ChEMBL document CHEMBL4052659, “Synthesis, molecular docking, and biological activity of polyfluoroalkyl dihydroazolo[5,1-c][1,2,4]triazines as selective carboxylesterase inhibitors” (Bioorg Med Chem, 2017)
The source made the active and inactive calls. No cut-off for these calls is given here.

Columns and labels:
Liver carboxylesterase [1] = target: T1, Liver carboxylesterase (Sus scrofa, UniProt Q29550); assay: Reversible mixed-type inhibition of porcine liver carboxylesterase at 0.5 to 2 uM using varying levels of 4-nitrophenol acetate as substrate preincubated for 10 mins followed by substrate addition by Lineweaver-Burk double-reciprocal plot analysis; settings: pig
T1 sequence (Q29550 whole entry): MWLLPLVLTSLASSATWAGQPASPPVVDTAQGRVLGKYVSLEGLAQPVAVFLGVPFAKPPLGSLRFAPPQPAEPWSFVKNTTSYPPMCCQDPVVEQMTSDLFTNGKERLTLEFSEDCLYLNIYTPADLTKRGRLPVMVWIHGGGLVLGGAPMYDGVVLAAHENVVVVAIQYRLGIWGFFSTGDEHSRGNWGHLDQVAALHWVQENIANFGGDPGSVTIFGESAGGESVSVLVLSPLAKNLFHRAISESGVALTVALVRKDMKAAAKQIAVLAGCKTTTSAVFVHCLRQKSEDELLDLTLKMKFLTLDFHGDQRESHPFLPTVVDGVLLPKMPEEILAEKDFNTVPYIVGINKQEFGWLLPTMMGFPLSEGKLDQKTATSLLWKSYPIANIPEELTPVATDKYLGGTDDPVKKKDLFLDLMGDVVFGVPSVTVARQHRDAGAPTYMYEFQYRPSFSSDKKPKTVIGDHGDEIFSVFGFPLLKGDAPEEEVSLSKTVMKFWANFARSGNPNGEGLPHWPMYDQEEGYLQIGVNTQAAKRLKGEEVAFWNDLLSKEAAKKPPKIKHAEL

Liver carboxylesterase [2] = target: T1, Liver carboxylesterase; assay: Competitive inhibition of porcine liver carboxylesterase using varying levels of 4-nitrophenol acetate as substrate preincubated for 10 mins followed by substrate addition by Lineweaver-Burk plot analysis
[3] = Acute toxicity in CD-1 mouse assessed as mouse survival up to 300 mg/kg, ip measured for 14 days; type: organism-based; settings: in vivo
[4] = target: Cholinesterase (Equus caballus) (UniProt P81908); assay: Inhibition of equine serum butyrylcholinesterase at 20 uM using butyrylthiocholine iodide as substrate preincubated for 10 mins followed by substrate addition by Ellman's method relative to control
[5] = target: Acetylcholinesterase (Homo sapiens) (UniProt P22303); assay: Inhibition of human erythrocyte acetylcholinesterase at 20 uM using acetylthiocholine iodide as substrate preincubated for 10 mins followed by substrate addition by Ellman's method relative to control
Liver carboxylesterase [6] = target: T1, Liver carboxylesterase
Description: Inhibition of porcine liver carboxylesterase using 4-nitrophenol acetate as substrate preincubated for 10 mins followed by substrate addition by spectrophotometric analysis

Liver carboxylesterase [7] = target: T1, Liver carboxylesterase; assay: Non-competitive inhibition of porcine liver carboxylesterase using varying levels of 4-nitrophenol acetate as substrate preincubated for 10 mins followed by substrate addition by Lineweaver-Burk plot analysis; settings: pig
Liver carboxylesterase [8] = target: T1, Liver carboxylesterase; assay: in vitro; settings: pig, porcine liver carboxylesterase, probe 4-nitrophenol acetate
Description: Inhibition of porcine liver carboxylesterase at 20 uM using 4-nitrophenol acetate as substrate preincubated for 10 mins followed by substrate addition by spectrophotometric analysis relative to control

Liver carboxylesterase [9] = target: T1, Liver carboxylesterase; assay: Reversible mixed-type inhibition of porcine liver carboxylesterase at 0.1 to 0.6 uM using varying levels of 4-nitrophenol acetate as substrate preincubated for 10 mins followed by substrate addition by Lineweaver-Burk double-reciprocal plot analysis; settings: pig
Liver carboxylesterase [10] = target: T1, Liver carboxylesterase; assay: Reversible mixed-type inhibition of porcine liver carboxylesterase at 5 to 20 uM using varying levels of 4-nitrophenol acetate as substrate preincubated for 10 mins followed by substrate addition by Lineweaver-Burk double-reciprocal plot analysis; settings: pig

Chain of Acetylcholinesterase (Homo sapiens) (P22303 whole entry): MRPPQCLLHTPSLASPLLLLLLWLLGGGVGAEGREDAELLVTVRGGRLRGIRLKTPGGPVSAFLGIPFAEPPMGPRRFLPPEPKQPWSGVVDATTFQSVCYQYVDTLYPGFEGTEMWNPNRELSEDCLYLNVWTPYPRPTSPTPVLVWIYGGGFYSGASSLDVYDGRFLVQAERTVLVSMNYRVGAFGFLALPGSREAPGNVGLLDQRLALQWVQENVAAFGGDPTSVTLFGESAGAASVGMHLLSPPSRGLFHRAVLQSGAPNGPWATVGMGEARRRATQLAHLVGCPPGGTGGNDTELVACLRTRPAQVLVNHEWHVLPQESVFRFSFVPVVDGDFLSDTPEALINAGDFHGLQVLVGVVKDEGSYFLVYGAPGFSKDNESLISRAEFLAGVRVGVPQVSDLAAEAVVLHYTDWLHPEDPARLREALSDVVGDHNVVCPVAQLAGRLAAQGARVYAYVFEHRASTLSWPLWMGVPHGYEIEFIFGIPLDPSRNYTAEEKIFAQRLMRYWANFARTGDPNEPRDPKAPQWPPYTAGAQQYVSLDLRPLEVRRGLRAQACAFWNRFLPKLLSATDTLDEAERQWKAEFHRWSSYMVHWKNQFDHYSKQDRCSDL
Chain of Cholinesterase (Equus caballus) (P81908 whole entry): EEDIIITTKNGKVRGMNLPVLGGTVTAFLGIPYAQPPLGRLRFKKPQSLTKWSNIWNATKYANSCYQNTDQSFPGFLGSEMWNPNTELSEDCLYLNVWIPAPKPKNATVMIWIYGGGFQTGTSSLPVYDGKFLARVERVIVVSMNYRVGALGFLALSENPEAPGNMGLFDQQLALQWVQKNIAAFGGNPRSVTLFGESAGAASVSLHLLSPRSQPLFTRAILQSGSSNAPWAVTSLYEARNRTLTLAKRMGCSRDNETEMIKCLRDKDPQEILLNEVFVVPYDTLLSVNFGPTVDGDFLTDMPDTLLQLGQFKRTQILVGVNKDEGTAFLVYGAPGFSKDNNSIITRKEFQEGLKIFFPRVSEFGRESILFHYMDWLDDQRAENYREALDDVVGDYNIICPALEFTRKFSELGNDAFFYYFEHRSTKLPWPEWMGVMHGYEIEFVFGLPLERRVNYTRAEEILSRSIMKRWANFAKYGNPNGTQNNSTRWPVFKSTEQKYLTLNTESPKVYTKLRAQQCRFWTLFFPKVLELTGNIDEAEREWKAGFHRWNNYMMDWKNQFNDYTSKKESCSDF

Structure (SMILES)	inhibition (INH) (Liver carboxylesterase [1])	Ki (Liver carboxylesterase [2]) [µM]	survival at 336 h [3] [%]	inhibition [4]	inhibition [5]	IC50 (Liver carboxylesterase [6]) [µM]	alphaKi (Liver carboxylesterase [7]) [µM]	inhibition at 20 µM (Liver carboxylesterase [8]) [%]	inhibition (INH) (Liver carboxylesterase [9])	inhibition (INH) (Liver carboxylesterase [10])
COC(=O)C1=NNc2nnnn2C1(O)C(F)(F)C(F)(F)C(F)(F)C(F)(F)F (stereo not drawn)	Active	0.57	100	inactive	inactive	1.31	1.74	–	–	–
CCOC(=O)C1=NNc2cc(-c3ccccc3)nn2C1(O)C(F)(F)C(F)(F)F (stereo not drawn)	–	1.61	100	22%	13.6%	3.91	3.52	–	–	–
O=C(C1=NNc2nnnn2C1(O)C(F)(F)F)c1ccccc1 (stereo not drawn)	–	–	–	inactive	inactive	17.2	–	–	–	–
CCOC(=O)C1=NNc2ncnn2C1(O)C(F)(F)F (stereo not drawn)	–	–	–	inactive	inactive	3.6	–	–	–	–
CCOC(=O)C1=NNc2c(C(=O)OCC)cnn2C1(O)C(F)(F)F (stereo not drawn)	–	–	–	8.5%	inactive	–	–	9.3	–	–
CCOC(=O)C1=NNc2ncnn2C1(O)C(F)(F)C(F)(F)C(F)(F)C(F)(F)F (stereo not drawn)	–	–	–	3.7%	inactive	0.98	–	–	–	–
CCOC(=O)C1=NNc2cc(-c3ccccc3)nn2C1(O)C(F)(F)F (stereo not drawn)	–	–	–	inactive	3.8%	16.4	–	–	–	–
CCOC(=O)C1=NNc2c(C(=O)OCC)ncn2C1(O)C(F)(F)F (stereo not drawn)	–	–	–	inactive	inactive	34.4	–	–	–	–
O=[N+]([O-])c1ccc(OP(=O)(O)Oc2ccc([N+](=O)[O-])cc2)cc1	–	–	–	inactive	inactive	1.8	–	–	–	–
CCOC(=O)C1=NNc2nnnn2C1(O)C(F)(F)F (stereo not drawn)	–	–	–	inactive	inactive	13.6	–	–	–	–
COC(=O)C1=NNc2nnnn2C1(O)C(F)(F)C(F)(F)C(F)(F)F (stereo not drawn)	–	–	–	inactive	inactive	3.29	–	–	–	–
CCOC(=O)c1nnc(N)nc1C(F)(F)F	–	–	–	inactive	inactive	3.9	–	–	–	–
CCOC(=O)C1=NNc2cc(C)nn2C1(O)C(F)(F)F (stereo not drawn)	–	–	–	7.3%	inactive	48.3	–	–	–	–
COC(=O)C1=NNc2nnnn2C1(O)C(F)(F)C(F)F (stereo not drawn)	–	–	–	inactive	inactive	12.3	–	–	–	–
O=C(C1=NNc2ncnn2C1(O)C(F)(F)C(F)(F)C(F)(F)F)c1ccccc1 (stereo not drawn)	–	–	–	inactive	inactive	53.4	–	–	–	–
COC(=O)C1=NNc2cc(-c3ccccc3)nn2C1(O)C(F)(F)C(F)(F)C(F)(F)C(F)(F)F (stereo not drawn)	–	0.7	–	11.6%	11.7%	0.96	1.6	–	–	–
CCOC(=O)C1=NNc2cc(C)nn2C1(O)C(F)(F)C(F)(F)C(F)(F)C(F)(F)F (stereo not drawn)	–	–	100	6%	3%	1.44	–	–	–	–
CCOC(=O)C1=NNc2cc(-c3ccccc3)nn2C1(O)C(F)(F)C(F)(F)C(F)(F)C(F)(F)F (stereo not drawn)	–	0.23	100	16.2%	inactive	0.46	0.69	–	Active	–
CCOC(=O)c1cnn2c1NN=C(C(=O)OC)C2(O)C(F)(F)C(F)(F)C(F)(F)F (stereo not drawn)	–	–	–	inactive	inactive	38.2	–	–	–	–
COC(=O)C1=NNc2nnnn2C1(O)C(F)(F)F (stereo not drawn)	–	–	–	4.1%	inactive	58.6	–	–	–	–
COC(=O)C1=NNc2ncnn2C1(O)C(F)(F)C(F)(F)C(F)(F)C(F)(F)F (stereo not drawn)	–	6.51	–	inactive	inactive	10.7	23.4	–	–	Active
CCOC(=O)C1=NNc2nnnn2C1(O)C(F)(F)C(F)(F)C(F)(F)C(F)(F)F (stereo not drawn)	–	–	–	inactive	inactive	0.83	–	–	–	–
